In patent US7329522B2, “Polyphosphate:AMP phosphotransferase” (Yamasa Corporation, priority 2002, dated 2008):

Columns and labels:
[1] = target: T1, PAP (polyphosphate:AMP phosphotransferase) (Acinetobacter johnsonii, UniProt Q83XD3); assay: Synthesis of NDP from NMP with PAP and polyphosphate, HPLC analysis; assay type: biochemical; conditions: 10 mM NMP, polyphosphate 30 mM, PAP 16 units/ml, 37° C., 30 minutes
T1 construct: the PAP gene codes for the polypeptide (molecular weight: 55.8 kd) comprising 475 amino acids; made in house; host or cells: E. coli JM109 carrying plasmid pPAP2

[2] = target: T1, PAP (polyphosphate:AMP phosphotransferase); assay: Substrate specificity of PAP: NDP or dNDP produced from NMP or dNMP, measured by HPLC; assay type: biochemical; conditions: relative to phosphorylation of AMP = 100%; 5 mM NMP or dNMP, polyphosphate 10 mM, 100 mM MgCl2, pH 8.0, 37° C., 10 minutes
Experimental: To 50 mM Tris HCl buffer solution (pH 8.0) containing 100 mM MgCl2, polyphosphate (10 mM calculated in terms of inorganic phosphate), and 5 mM of various NMP or dNMP was added PAP at various concentration, and the solution was incubate at 37° C. for 10 minutes. The reaction was terminated by heat treatment at 100° C. for 1 minute, and the solution after the reaction was subjected to HPLC to measure the amount of the NDP or the dNDP produced. The specific activity of each NMP or dNMP is shown in Table 1 as a relative value in relation to the specific activity of the PAP in the phosphorylation of the AMP, which is assumed 100%.

[3] = test system: PAP from Acinetobacter johnsonii; conditions: PAP obtained from Acinetobacter johnsonii, reported as AMP-specific; cited from earlier work
[4] = Adenylate kinase activity measurement (ADP from AMP and ATP, HPLC); assay type: biochemical; conditions: cell extract; 1 unit = 2 μmole ADP at 37° C. in 1 minute
Experimental: The unit of the adenylate kinase activity is the one measured and calculated by the procedure as described below. Sample enzyme is added the 50 mM Tris HCl buffer solution (pH 7.8) containing 10 mM magnesium chloride, 10 mM AMP, and 10 mM ATP, and the solution is incubated at 37° C. to promote the reaction, and the reaction is terminated by a 1 minute heating at 100° C. Amount of the ADP in the reaction solution is measured by using HPLC, and the activity of producing 2 μmole of ADP at 37° C. in 1 minute is designated 1 unit.
E. coli adenylate kinase was prepared by the procedure described in the document (Proc. Natl. Acad. Sci. USA, 97, 14168-14171 (2000)). However, the cell extract produced by ultrasonication was used for the enzyme solution, and the specific activity of the adenylate kinase in the enzyme solution was 12.5 units/mg protein.

[5] = Galactokinase activity measurement (galactose-1-phosphate produced, sugar analyzer); assay type: biochemical; conditions: partially purified; 1 unit = 1 μmole galactose-1-phosphate at 37° C. in 1 minute
Experimental: E. coli strain JM109 having the plasmid pDR540 containing E. coli galactokinase gene (Gene, 20, 231(1982), obtained from Pharmacia) was inoculated in 2xYT medium containing 100 μg/ml ampicillin, and the E. coli was cultivated at 37° C. with shaking. When the cell density reached 4×10^8/ml, IPTG was added to the culture medium to a final concentration of 1 mM, and the incubation was continued at 30° C. for another 5 hours. After completion of the cultivation, the cells were collected by centrifugation and suspended in 30 ml buffer solution (50 mM Tris HCl (pH 7.8), 1 mM EDTA). The cells were lyzed by ultrasonication, and bacterial residue was removed by further centrifugation. The solution collected was subjected to ion exchange chromatography using DEAE Toyopearl 650M (Toso) (eluent: 50 mM Tris HCl (pH 7.8), concentration gradient of 0 to 0.5M NaCl) for fractionation and partial purification of the galactokinase. The thus recovered fraction was used for the enzyme solution of galactokinase. […]
The unit of the glactokinase activity was the one measured and calculated by the procedure as described below. […] Amount of the galactose-1-phosphate in the reaction solution was measured by using a sugar analyzer (Dionex), and the activity of producing 1 μmole of galactose-1-phosphate at 37° C. in 1 minute was designated 1 unit.

[6] = pH stability of PAP (residual activity); assay type: physicochemical; conditions: pH in the range of 7 to 9; activity at pH 8 = 100%; 37° C., 10 minutes, 100 mM magnesium chloride
Experimental: PAP was incubated in either 50 mM maleate or 50 mM Tris HCl buffer solution of various pH at 37° C. for 10 minutes in the presence of 100 mM magnesium chloride to measure the residual activity. The residual activity was measured by allowing the reaction to take place at 37° C. for 10 minutes in the presence of 50 mM Tris buffer solution (pH 8.0), 100 mM magnesium chloride, 5 mM AMP, and polyphosphate (10 mM calculated in terms of inorganic phosphate), and measuring the resulting ADP by HPLC.

[7] = PAP activity measurement (ADP produced from AMP and polyphosphate, HPLC); assay type: biochemical; conditions: partially purified by DEAE TOYOPEARL 650M; 1 unit = 1 μmole ADP at 37° C. in 1 minute
Experimental: The “unit” used herein is the unit measured under the following conditions, and 1 unit corresponds to the activity of producing 1 μmole of ADP at 37° C. in 1 minute.
Sample enzyme is added to 50 mM Tris HCl buffer solution (pH 7.8) containing 20 mM magnesium chloride, 10 mM AMP, and polyphosphate (30 mM calculated in terms of inorganic phosphate) and the reaction is allowed to proceed by incubating the temperature at 37° C., and the reaction is thereafter terminated by a heat treatment at 100° C. for 1 minute, and amount of ADP in the reaction solution is measured by high performance liquid chromatography (HPLC).
It is to be noted that this productivity corresponds to about 150 times the productivity of the Acinetobacter Johnsonii. PAP was partially purified by fractionating the extract by ion exchange chromatography using DEAE TOYOPEARL 650M (TOSO) (eluent: 50 mM Tris HCl (pH 7.8), concentration gradient of 0 to 0.5M NaCl), and the collected fraction was used for the enzyme sample. The specific activity of the PAP in the collected fraction was 80.5 units/mg protein.

Optimal pH of PAP = assay type: biochemical; conditions: 37° C., 10 minutes, 5 mM AMP, polyphosphate 10 mM, 100 mM magnesium chloride
Experimental: The reaction was allowed to proceed in either 50 mM maleate or 50 mM Tris HCl buffer solution of various pH at 37° C. for 10 minutes in the presence of 100 mM magnesium chloride, polyphosphate (10 mM calculated in terms of inorganic phosphate), and 5 mM AMP to measure the amount of the ADP produced by HPLC.

[8] = Thermal stability of PAP (residual activity); assay type: physicochemical; conditions: 10 minutes, pH 8.0, in the presence of the polyphosphate
Experimental: PAP was incubated for 10 minutes in 50 mM Tris HCl buffer solution (pH 8.0) containing 100 mM magnesium chloride in the presence or absence of polyphosphate (10 mM calculated in terms of inorganic phosphate) in the bath at various temperatures to measure the residual activity by the procedure as described above.

Row | Molecule | NDP generated [1] | Specific activity (relative value) [2] | further results
1 | Nc1ncnc2c1ncn2[C@@H]1O[C@H](COP(=O)(O)O)[C@@H](O)[C@H]1O [AMP, adenosine 5′-monophosphate] | 6.76 mM ADP | 100% | 
2 | Nc1ccn([C@@H]2O[C@H](COP(=O)(O)O)[C@@H](O)[C@H]2O)c(=O)n1 [CMP] | 0.98 mM CDP | 0.09% | phosphate-transfer by conventional PAP [3]: no phosphotransfer at all
3 | Nc1nc2c(ncn2[C@@H]2O[C@H](COP(=O)(O)O)[C@@H](O)[C@H]2O)c(=O)[nH]1 [GMP] | 7.16 mM GDP | 10% | phosphate-transfer by conventional PAP [3]: some phosphate-transfer
4 | Cc1cn([C@H]2C[C@H](O)[C@@H](COP(=O)(O)O)O2)c(=O)[nH]c1=O [TMP] |  | 0.012% | 
5 | O=c1ccn([C@@H]2O[C@H](COP(=O)(O)O)[C@@H](O)[C@H]2O)c(=O)[nH]1 [UMP] | 0.85 mM UDP | 0.13% | phosphate-transfer by conventional PAP [3]: no phosphotransfer at all
6 | Nc1ncnc2c1ncn2[C@H]1C[C@H](O)[C@@H](COP(=O)(O)O)O1 [dAMP] |  | 18% | 
7 | Nc1ccn([C@H]2C[C@H](O)[C@@H](COP(=O)(O)O)O2)c(=O)n1 [dCMP] |  | 0.008% | 
8 | Nc1nc2c(ncn2[C@H]2C[C@H](O)[C@@H](COP(=O)(O)O)O2)c(=O)[nH]1 [dGMP] |  | 2.6% | 
9 | adenylate kinase: E. coli adenylate kinase, cell extract used as enzyme solution |  |  | specific activity of the adenylate kinase in the enzyme solution [4]: 12.5 units/mg protein
10 | galactokinase: E. coli galactokinase, partially purified enzyme solution (protein, UniProt P0A6T3 2-382, looked up) Galactokinase: SLKEKTQSLFANAFGYPATHTIQAPGRVNLIGEHTDYNDGFVLPCAIDYQTVISCAPRDDRKVRVMAADYENQLDEFSLDAPIVAHENYQWANYVRGVVKHLQLRNNSFGGVDMVISGNVPQGAGLSSSASLEVAVGTVLQQLYHLPLDGAQIALNGQEAENQFVGCNCGIMDQLISALGKKDHALLIDCRSLGTKAVSMPKGVAVVIINSNFKRTLVGSEYNTRREQCETGARFFQQPALRDVTIEEFNAVAHELDPIVAKRVRHILTENARTVEAASALEQGDLKRMGELMAESHASMRDDFEITVPQIDTLVEIVKAVIGDKGGVRMTGGGFGGCIVALIPEELVPAVQQAVAEQYEAKTGIKETFYVCKPSQGAGQC |  |  | specific activity of the galactokinase in the enzyme solution [5]: 6.5 units/mg protein
11 | polyphosphate:AMP phosphotransferase (protein, listed as Acinetobacter jobnsonii) MDTETIASAVLNEEQLSLDLIEAQYALMNTRDQSNAKSLVILVSGIELAGKGEAVKQLREWVDPRFLYVKADPPHLFNLKQPFWQPYTRFVPAEGQIMVWFGNWYGDLLATAMHASKPLDDTLFDEYVSNMRAFEQDLKNNNVDVLKVWFDLSWKSLQKRLDDMDPSEVHWHKLHGLDWRNKKQYDTLQKLRTRFTDDWQIIDGEDEDLRNHNFAQAILTALRHCPEHEKKAALKWQQAPIPDILTQFEVPQAEDANYKSELKKLTKQVADAMRCDDRKVVIAFEGMDAAGKGGAIKRIVKKLDPREYEIHTIAAPEKYELRRPYLWRFWSKLQSDDITIFDRTWYGRVLVERVEGFATEVEWQRAYAEINRFEKNLSSSQTVLIKFWLAIDKDEQAARFKARESTPHKRFKITEEDWRNRDKWDDYLKAAADMFAHTDTSYAPWYIISTNDKQQARIEVLRAILKQLKADRDTD |  |  | enzymatic activity (residual) after incubation at various pH [6]: ≥ 80%; specific activity of the PAP in the collected fraction [7]: 80.5 units/mg protein; optimal pH (Optimal pH of PAP): approximately 8.5; thermal stability: stable up to [8]: approximately 50 °C
